According to patent publication US6043220A, “Threonine-containing protegrins” (IntraBiotics Pharmaceuticals, Inc., priority 1997, dated 2000):
≈ marks a conversion by molar mass, not a printed value. Square brackets hold non-standard residues; d marks the D form. Ends that are not written are not given here. Dbu = diaminobutyric acid (X in this publication); code O = not defined here; Orn = NCCC[C@H](N)C(=O)O

Experiments:
VRE = assay: In vitro serum availability, MCZ assay, indicator bacteria VRE; assay type: cell-based, vancomycin-resistant Enterococcus faecium or faecalis; conditions: 50 μg/mL peptide; 90% serum as diluent; activity in serum vs same peptide without serum (100%)
Protocol: (§1) Peptide was tested at 50 μg/ml against two different strains of indicator bacteria (E. coli and VRE) both in the presence and absence of serum. For experiments performed in the presence of serum, 90% serum was used as the peptide diluent. Native PG-1 (SEQ ID NO:1) was tested as a control.
(§2) Percent availability refers to the activity of the indicated peptide in serum as compared with the activity of the same peptide in the absence of serum (assigned a value of 100%).

[1] = system: methicillin resistant Staphylococcus aureus (MRSA); assay: MIC, antimicrobial activity against MRSA; assay type: cell-based
From the text: (§3) Methods were as described in WO 97/18826.

[2] = system: Candida albicans (C. alb); assay: MIC, antimicrobial activity against C. alb; assay type: cell-based
From the text: as §3

[3] = system: Pseudomonas aruginosa (Psa); assay: MIC, antimicrobial activity against Psa; assay type: cell-based
From the text: as §3

E. coli [4] = assay: In vitro serum availability, MCZ assay, indicator bacteria E. coli; assay type: cell-based; conditions: 50 μg/mL peptide; 90% serum as diluent; activity in serum vs same peptide without serum (100%)
Protocol: as §1, §2

[5] = system: vancomycin resistant Enterococcus faecium (VREF); assay: MIC, antimicrobial activity against VREF; assay type: cell-based
From the text: as §3

human red blood cells = assay: Hemolytic activity against human red blood cells; conditions: FIG. 1; compared with native PG-1 and melittin
Protocol: In the assay, various concentrations of peptides were incubated with human red blood cells and the percentage of hemolysis determined.

[6] = system: ME-180 (human cervical carcinoma) cells; assay: Cytotoxicity, MTT assay; assay type: cell-based; conditions: ME-180 cells
Protocol: Native protegrin PG-1 (SEQ ID NO:1) and melittin (SEQ ID NO:19) were tested as controls.

E. coli [7] = assay: Antimicrobial activity against E. coli in borate buffered saline with and without lysozyme; assay type: cell-based; conditions: presence vs absence of lysozyme
From the text: The protegrins of the invention retain their activity against microbes in the context of borate solutions that are commonly used in eye care products. […] This effect was more pronounced when the PG-3 was autoclaved and similar patterns were obtained for both the free-acid and the amide forms. Accordingly, the protegrins may be used as preservatives in such compositions or as antimicrobials for treatment of eye infections, such as conjunctivitis and corneal ulcers.

Molecule: OGGOTCYCOOOFCVCVGO-NH2 ([code O]GG[code O]TCYC[code O][code O][code O]FCVCVG[code O]-NH2; cysteine pairing not given here; reading uncertain; also: printed as OGGOTCYCOOOFCVCVGO-NH2)
- In Vitro Serum Availability (%) VRE (VRE): 9%
- MIC MRSA [1]: > 64 μ g/ml
- MIC C. alb. [2]: > 64 μ g/ml
- MIC Psa [3]: 1 μ g/ml
- In Vitro Serum Availability (%) E. coli (E. coli [4]): 40%
- MIC VREF [5]: 3.3 μ g/ml

Molecule: RGGRLCYCRRRFCVCTGR-NH2 (ends and bridges not checked) [[^16 T]PG-1]
- hemolytic activity against human red blood cells (in words) (human red blood cells): decreased hemolytic activity
- EC50, MTT assay [6]: 122.6 µg/mL

Molecule: WTCYCOOOFCVCV-NH2 (WTCYC[code O][code O][code O]FCVCV-NH2; cysteine pairing not given here; reading uncertain; also: printed as WTCYCOOOFCVCV-NH2)
- In Vitro Serum Availability (%) VRE (VRE): 2%
- MIC MRSA [1]: 16 μ g/ml
- MIC C. alb. [2]: 1.6 μ g/ml
- MIC Psa [3]: 1 μ g/ml
- In Vitro Serum Availability (%) E. coli (E. coli [4]): 4%
- MIC VREF [5]: 0.25 μ g/ml

Molecule: RGGRLCYCRRRFCTCVGR-NH2 (ends and bridges not checked) [[^14 T]PG-1]
- hemolytic activity against human red blood cells (in words) (human red blood cells): decreased hemolytic activity
- EC50, MTT assay [6]: 154.8 µg/mL
- cytotoxicity compared with native PG-1 and melittin (in words) ([6]; MTT assay): less cytotoxic than native PG-1 and the control peptide melittin

Molecule: CC[C@H](C)[C@H](NC(=O)CN)C(=O)NCC(=O)N[C@@H](C)C(=O)N[C@H](C(=O)N[C@@H](CC(C)C)C(=O)N[C@@H](CCCCN)C(=O)N[C@H](C(=O)N[C@@H](CC(C)C)C(=O)N[C@H](C(=O)N[C@H](C(=O)NCC(=O)N[C@@H](CC(C)C)C(=O)N1CCC[C@H]1C(=O)N[C@@H](C)C(=O)N[C@@H](CC(C)C)C(=O)N[C@H](C(=O)N[C@@H](CO)C(=O)N[C@@H](Cc1c[nH]c2ccccc12)C(=O)N[C@H](C(=O)N[C@@H](CCCCN)C(=O)N[C@@H](CCCNC(=N)N)C(=O)N[C@@H](CCCCN)C(=O)N[C@@H](CCCNC(=N)N)C(=O)N[C@@H](CCC(N)=O)C(=O)N[C@@H](CCC(N)=O)C(N)=O)[C@@H](C)CC)[C@@H](C)CC)[C@@H](C)O)[C@@H](C)O)C(C)C)C(C)C [Melittin, reference compound]
- EC50, MTT assay [6]: 8.0 µg/mL (≈ 2.81 µM)

Molecule: OTTLCYCOGOFCVCVGO-NH2 ([Orn]TTLCYC[Orn]G[Orn]FCVCVG[Orn]-NH2; cysteine pairing not given here)
- In Vitro Serum Availability (%) VRE (VRE): 3%
- MIC MRSA [1]: 32 μ g/ml
- MIC C. alb. [2]: 32 μ g/ml
- MIC Psa [3]: 0.5 μ g/ml
- In Vitro Serum Availability (%) E. coli (E. coli [4]): 10%
- MIC VREF [5]: 1 μ g/ml

Molecule: JTCYCOOOFCVCV-NH2
- MIC MRSA [1]: 32 μ g/ml
- MIC C. alb. [2]: > 64 μ g/ml
- MIC Psa [3]: 2 μ g/ml
- MIC VREF [5]: 6.67 μ g/ml

Molecule: JLCFCOOOFCTCV-NH2
- MIC MRSA [1]: 64 μ g/ml
- MIC C. alb. [2]: 64 μ g/ml
- MIC Psa [3]: 4 μ g/ml
- MIC VREF [5]: 2 μ g/ml

Molecule: RGGRLCTCRRRFCVCVGR-NH2 (ends and bridges not checked) [[^7 T]PG-1]
- hemolytic activity against human red blood cells (in words) (human red blood cells): decreased hemolytic activity
- EC50, MTT assay [6]: 50.4 µg/mL

Molecule: CC(C)C[C@H](NC(=O)[C@H](CCCNC(=N)N)NC(=O)CNC(=O)CNC(=O)[C@@H](N)CCCNC(=N)N)C(=O)N[C@H]1CSSC[C@@H](C(=O)N[C@H](C(=O)NCC(=O)N[C@@H](CCCNC(=N)N)C(N)=O)C(C)C)NC(=O)[C@H](C(C)C)NC(=O)[C@@H]2CSSC[C@H](NC(=O)[C@H](Cc3ccc(O)cc3)NC1=O)C(=O)N[C@@H](CCCNC(=N)N)C(=O)N[C@@H](CCCNC(=N)N)C(=O)N[C@@H](CCCNC(=N)N)C(=O)N[C@@H](Cc1ccccc1)C(=O)N2 [Native PG-1, RGGRLCYCRRRFCVCVGR-NH2, reference compound]
- hemolytic activity against human red blood cells (in words) (human red blood cells): hemolytic against human red blood cells

Molecule: RGGRTCYCRRRFCVCVGR-NH2 (ends and bridges not checked) [[^5 T]PG-1]
- In Vitro Serum Availability (%) VRE (VRE): 1.6%
- hemolytic activity against human red blood cells (in words) (human red blood cells): decreased hemolytic activity
- MIC MRSA [1]: 8 μ g/ml
- MIC C. alb. [2]: 8 μ g/ml
- EC50, MTT assay [6]: 101.3 µg/mL
- MIC Psa [3]: 2 μ g/ml
- In Vitro Serum Availability (%) E. coli (E. coli [4]): 10%
- MIC VREF [5]: 0.3 μ g/ml

Molecule: JTCFCOOOFCTCV-NH2
- MIC MRSA [1]: > 128 μ g/ml
- MIC C. alb. [2]: > 128 μ g/ml
- MIC Psa [3]: 16 μ g/ml
- MIC VREF [5]: 32 μ g/ml

Molecule: XTXLCYCXXXFCTCV-NH2 ([Dbu]T[Dbu]LCYC[Dbu][Dbu][Dbu]FCTCV-NH2; not fully specified (N-terminus); cysteine pairing not given here) [*XTXLCYCXXXFCTCV-NH2]
- MIC MRSA [1]: 16 μ g/ml
- MIC C. alb. [2]: 8 μ g/ml
- MIC Psa [3]: 1.3 μ g/ml
- MIC VREF [5]: 1 μ g/ml

Molecule: PG-3: naturally-occurring protegrin from porcine leukocytes; free-acid and amide forms (RGGGLCYCRRRFCVCVGR; ends and bridges not checked; also: free acid or amide forms; UniProt P32196 131-148, looked up)
- effect of lysozyme on antimicrobial effectiveness (E. coli [7]): the presence of lysozyme enhanced the effectiveness

Molecule: OTOLCYCOZOFCVCV-NH2
- In Vitro Serum Availability (%) VRE (VRE): 8%
- MIC MRSA [1]: 64 μ g/ml
- MIC C. alb. [2]: > 64 μ g/ml
- MIC Psa [3]: 2 μ g/ml
- In Vitro Serum Availability (%) E. coli (E. coli [4]): 30%
- MIC VREF [5]: 8 μ g/ml
